Here are results for 12 molecules from article PMC10632401, “Cell-free biosynthesis combined with deep learning accelerates de novo-development of antimicrobial peptides” (Nature Communications, 2023).

No end group written: not given here.

Data set [1] relates to E. coli. It counts as cell-based, Escherichia coli. Particulars: daily passage from cells grown at half-MIC, n=3.
The test system of data set [2] is E. coli MG1655. The settings on record: MG1655, 20 h.
Data set [3] relates to B. subtilis PY79. The settings on record: PY79, 20 h.
The subject of data set [4] is A. baumannii (isolate from the human abdominal wall). Particulars: 20 h.
Data set [5] relates to P. aeruginosa DSM 1117. Particulars: DSM 1117, 20 h.
Data set [6] deals with S. aureus DSM 11729 (MRSA). The settings on record: DSM 11729, 20 h.
Data set [7] deals with E. faecium (isolate from the gut of the cow). Particulars: 20 h.
For data set [8], the system named is K. pneumoniae DSM 30104. The settings on record: DSM 30104, 20 h.
Data set [9] relates to S. pneumoniae D39. The settings on record: D39, 20 h.
Data set [10] is described as follows: in vitro. The settings on record: human.
Data set [11] relates to Escherichia coli MG1655. As to the kind of experiment: Outer membrane vesicle (OMV) release after AMP treatment. It counts as cell-based. Particulars: ¼ MIC, 90 min. Here is the method: Escherichia coli MG1655 was grown on MacConkey agar (Carl Roth, Karlsruhe, Germany) plates overnight. For overnight culture, a single colony was used for inoculation of 2 mL LB media at 37 °C, 160 rpm (MaxQ 6000, Thermo Fisher Scientific, Karlsruhe, Germany). Bacterial culture was transferred to 10 mL fresh LB media and incubated (1 h, 37 °C, 160 rpm). The required amount of bacteria was treated with ¼ MIC of the AMPs #3, #5, #10, #13, #15, #16, and #27, left untreated for control or was treated with acetic acid and BSA as solvent control (90 min, 37 °C, 160 rpm). Samples were centrifuged (4,500 x g, 15 min, 4 °C; Multifuge X3R, Thermo Fisher Scientific), the supernatant was sterile filtered (0.22 µm) and afterwards concentrated by the factor of 20 using 100 kDa molecular weight cut-off filters (Merck KGaA, Darmstadt, Germany). To determine the number of released vesicles, samples were measured by nano-flow cytometry (nFCM) using a NanoAnalyzer (NanoFCM Co., Ltd, Nottingham, UK)[64].

Regarding `C[C@@H](O)[C@H]1C(=O)N2C(C(=O)O)=C(SCCN=CN)C[C@H]12` [imipenem], the “increase in MIC during 21 days of serial passage” value in data set [1] is reported as “up to 8 fold”.

In turn, “H-MCFCFKAGPKICRGLQRKKKKFKYQTSFTKTGFGFLTKPKSPAR-NH2 (cysteines drawn unpaired) [AMP #10]” yielded a CC50 of 105 µM. Further, the “E. coli MIC” value in data set [2] worked out at 50.0 µM. For the same molecule, the “B. subtilis MIC” value in [3] was 0.6 µM.

“H-MCFCRYRFFYRRRIRFFKWGPYFYVWFGFPFGRKAFFLSVFRRRFC-NH2 (cysteines drawn unpaired) [AMP #19]” gave a CC50 above 250 µM. In addition, in data set [2], the “E. coli MIC” value is 25.0 µM. In data set [3], the “B. subtilis MIC” value was determined as 8.4 µM.

As to “H-MCFFPRRKSKVKVKGGLCRLLFIFFKTTFCFKAKTKKEIKKGTGKKIVR-NH2 (cysteines drawn unpaired) [AMP #18]”, the CC50 was determined as 153 µM. In addition, in [2], the “E. coli MIC” value came to 50.0 µM. Besides, the “B. subtilis MIC” value in [3] was determined as 3.1 µM.

As to “H-MKEKKFFFFCFKKRRGFYKRRFFCKTTCFTYCFYKPRGTKTMPYVFSE-NH2 (cysteines drawn unpaired) [AMP #14]”, the “MIC A. baumannii” value in [4] was found to be 25.0 µM. The “MIC P. aeruginosa” value in [5] worked out at 12.5 µM. In data set [6], the “MIC S. aureus (MRSA)” value was 25.0 µM. Besides, in data set [7], the “MIC E. faecium” value was determined as 6.3 µM.

As for “MEAFKKKPRLPLFKVKLTRFLERARGLGSYRIFEFFKKFGVKKFVSSLR-NH2 [AMP #15]”, the “E. coli MIC” value in [2] came out at 25.0 µM. The “B. subtilis MIC” value in data set [3] turned out to be 0.8 µM. In [4], the “MIC A. baumannii” value is 1.6 µM. The “MIC K. pneumoniae” value in data set [8] was 1.6 µM. In addition, the “MIC P. aeruginosa” value in data set [5] turned out to be 12.5 µM. Moreover, the “MIC E. faecium” value in data set [7] was 1.6 µM. For the same molecule, the “MIC S. pneumoniae” value in data set [9] was determined as 25.0 µM. The same molecule came in with a CC50 at 24 h in [10] of 30.7 µM.

Take “MKAKKWFESLFKTFFKKGKGIYPKSSFEKEKKTDKKKKFGGWVWFKK-NH2 [AMP #16]”: the “E. coli MIC” value in data set [2] is 6.3 µM. In addition, the “B. subtilis MIC” value in [3] came out at 0.8 µM. Also, the “MIC A. baumannii” value in data set [4] was determined as 1.6 µM. Also, in data set [8], the “MIC K. pneumoniae” value is 2.4 µM. In data set [5], the “MIC P. aeruginosa” value stood at 12.5 µM. Moreover, the “MIC E. faecium” value in [7] was determined as 1.6 µM. The CC50 at 24 h in [10] is 39.3 µM.

With “MKQPSKTKTHFKYFLLFLKSVKKVAGFKKKKKKYHWRSYKEGSCFRKRT-NH2 [AMP #13]”, in data set [2], the “E. coli MIC” value is reported as 25.0 µM. Moreover, the “B. subtilis MIC” value in data set [3] amounted to 1.6 µM. Moreover, the “MIC A. baumannii” value in [4] stood at 3.1 µM. For the same molecule, the “MIC K. pneumoniae” value in [8] stood at 6.3 µM. Further, in data set [5], the “MIC P. aeruginosa” value is 12.5 µM. The “MIC E. faecium” value in data set [7] was 1.6 µM. Also, the “MIC S. pneumoniae” value in data set [9] is 12.5 µM. This molecule also displayed a CC50 at 24 h in [10] of 25.8 µM.

For “MNTTSNMIHRAVQQKRISFRAAKLTVLFLFKRRLLRRLLRHHEN-NH2 [AMP #27]”, in data set [2], the “E. coli MIC” value is 12.5 µM. Besides, the “B. subtilis MIC” value in data set [3] was 0.4 µM. In addition, the “MIC A. baumannii” value in data set [4] came out at 2.4 µM. Moreover, the “MIC K. pneumoniae” value in data set [8] came out at 6.3 µM. Besides, the “MIC P. aeruginosa” value in [5] was 12.5 µM. Further, in [7], the “MIC E. faecium” value came to 1.6 µM. In addition, the CC50 at 24 h in data set [10] was 75.7 µM.

On to “MRRKTPVKWKTFFKALKHKKKIFKKTFEKFKFLAKGPAFLKGFDQKLKS-NH2 [AMP #5]”, for which the “E. coli MIC” value in data set [2] was determined as 2.1 µM. Also, the “B. subtilis MIC” value in data set [3] is 0.5 µM. Moreover, the “MIC A. baumannii” value in data set [4] was 1.0 µM. The “MIC K. pneumoniae” value in data set [8] was found to be 0.8 µM. Moreover, the “MIC P. aeruginosa” value in data set [5] amounted to 3.1 µM. Further, in [7], the “MIC E. faecium” value is 1.6 µM. Moreover, in data set [9], the “MIC S. pneumoniae” value was 25.0 µM. The molecule also returned a CC50 at 24 h in [10] of 68.4 µM.

Turning to “MYLKKFLALKNSLKKLSPFKCAVKSWLKKCAEVTFYSKLLGRRGKKDGN-NH2 (cysteines drawn unpaired) [AMP #6]”, the “E. coli MIC” value in data set [2] worked out at 25.0 µM. Also, the “B. subtilis MIC” value in data set [3] worked out at 2.1 µM. Besides, the “MIC A. baumannii” value in [4] turned out to be 6.3 µM. For the same molecule, the “MIC K. pneumoniae” value in data set [8] amounted to 12.5 µM. The “MIC P. aeruginosa” value in data set [5] stood at 25.0 µM. Further, the “MIC E. faecium” value in data set [7] turned out to be 6.3 µM. Further, the CC50 at 24 h in data set [10] was 67.5 µM.

Take polymyxin B: the “release of outer membrane vesicles (OMV) compared to untreated E. coli” value in [11] is “only significantly different group”.
